The record followed here is ChEMBL document CHEMBL1201862, “PubChem BioAssay data set” (2004).

Some test systems named below: 786-0; A498; CAKI-1; CCRF-CEM; COLO 205; EKVX; HCC 2998; HCT-116; KM12; NCI-H522; SF-295; SN12C; UO-31; SNB-75; SR; UACC-257.
Holding throughout (test): NCI tumour cell line growth inhibition, 48 h

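Where inhibition never reached the appropriate level, the endpoint shown equals the highest concentration tested. Otherwise, values were interpolated linearly from a five-concentration, 48-hour dose response in 96-well plates. The concentration for 50% growth inhibition is given as GI50.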 Active and inactive are the calls of the source. Cut-off read from the data, not from the text of the source: active = GI50 up to about 1.1 µM and inactive = higher.

Take `CNC(=O)OCc1c2ccncc2c(C)c2c1[nH]c1ccc(OC)cc12`: the GI50 is 0.156 µM (active) in the test with 786-0; 0.176 µM (active) in the test with A498; 0.968 µM (active) in the test on CAKI-1; 0.176 µM (active) in the test on CCRF-CEM; 0.536 µM (active) in the test with COLO 205; 2.21 µM (inactive) in the test with EKVX. Besides, the GI50 was 0.29 µM (active) in the test with HCC 2998; 0.156 µM (active) in the test on HCT-116; 0.573 µM (active) in the test with KM12; 0.0805 µM (active) in the test with NCI-H522; 0.352 µM (active) in the test on SF-295; 0.678 µM (active) in the test with SN12C. Moreover, the GI50 in the test on UO-31 is 0.148 µM (active).
Turning to `O=C(/C=C/c1ccccc1)/C=C/c1ccccc1`, the GI50 in the test on 786-0 was 30.3 µM (inactive); in the test on A498 it was > 100 µM (inactive); in the test on CAKI-1 it was 92.9 µM (inactive); in the test with CCRF-CEM, 36.9 µM (inactive); with COLO 205, > 100 µM (inactive); in the test with HCC 2998 it was 37.8 µM (inactive). Moreover, the GI50 with HCT-116 was 17.3 µM (inactive); with KM12 it was 18 µM (inactive); in the test with SF-295 it was 53.5 µM (inactive); in the test with SN12C, 20.4 µM (inactive); in the test with SNB-75, 47.6 µM (inactive); in the test on SR, 26.2 µM (inactive). For the same compound, the results for the GI50 in the test with UACC-257 and in the test with UO-31 were 24.4 µM (inactive) and 43.5 µM (inactive), respectively.
With `O=C(O)CNS(=O)(=O)c1ccc(NC(=O)c2cccc([N+](=O)[O-])c2)cc1`, the GI50 with 786-0, in the test with A498, in the test on CAKI-1, with CCRF-CEM, with COLO 205 and in the test with EKVX was > 100 µM (inactive) each time. Also, the GI50 in the test with HCC 2998, with KM12, in the test with NCI-H522, with SF-295, with SN12C and with SNB-75 was > 100 µM (inactive) in each case. The GI50 in the test on UACC-257 and in the test on UO-31 was > 100 µM (inactive) in each case.
Regarding `O=C1C(=O)C(Br)(Br)C(Br)=C1Br`, the GI50 was 16.4 µM (inactive) in the test on 786-0; 18.4 µM (inactive) in the test with CAKI-1; 16.2 µM (inactive) in the test on CCRF-CEM; 17.1 µM (inactive) with COLO 205; 25.4 µM (inactive) in the test with EKVX; 20.5 µM (inactive) with HCC 2998. Moreover, the GI50 is 12.9 µM (inactive) with KM12; 2.33 µM (inactive) in the test on NCI-H522; 57.4 µM (inactive) in the test with SF-295; 23.7 µM (inactive) in the test with SN12C; 14.4 µM (inactive) with SNB-75; 20.3 µM (inactive) in the test on UACC-257. Further, in the test with UO-31, the GI50 is 17.8 µM (inactive).
As to `COC1OC(COS(=O)(=O)c2ccc(C)cc2)C(O)C(OS(=O)(=O)c2ccc(C)cc2)C1OS(=O)(=O)c1ccc(C)cc1` (centres undefined), the GI50 with 786-0 is > 100 µM (inactive); with CAKI-1, 1.03 µM (active); with CCRF-CEM, > 100 µM (inactive); with COLO 205, > 100 µM (inactive); in the test with EKVX, > 100 µM (inactive); in the test with HCC 2998, > 100 µM (inactive). Moreover, the GI50 in the test on HCT-116 was > 100 µM (inactive); with KM12, > 100 µM (inactive); in the test on NCI-H522 it was > 100 µM (inactive); in the test with SF-295, > 100 µM (inactive); in the test on SN12C, > 100 µM (inactive); in the test on SNB-75 it was 95.9 µM (inactive). For the same compound, the GI50 with SR, with UACC-257 and with UO-31 was > 100 µM (inactive) each time.
In the case of `CC1(C(=O)NCCN(CCNC(=O)C2(C)CC3(C)CC(C)(C2)C(=O)NC3=O)CCNC(=O)C2(C)CC3(C)CC(C)(C2)C(=O)NC3=O)CC2(C)CC(C)(C1)C(=O)NC2=O` (centres undefined), the GI50 with 786-0, with A498, in the test with CAKI-1, with CCRF-CEM, in the test on COLO 205 and in the test on EKVX was > 100 µM (inactive) throughout. The GI50 in the test on HCC 2998, in the test with HCT-116, in the test on KM12, in the test with SF-295, with SN12C and in the test with SNB-75 was > 100 µM (inactive) throughout. Moreover, the GI50 in the test on SR, in the test with UACC-257 and in the test with UO-31 was > 100 µM (inactive) throughout.
As for `CCOC(=O)NC(=O)c1cn(CCOCCOC(=O)NCCCCCCNC(=O)OCCOCCn2cc(C(=O)NC(=O)OCC)c(=O)[nH]c2=O)c(=O)[nH]c1=O`, the GI50 with 786-0, with A498, in the test on COLO 205, in the test on EKVX, with HCC 2998 and in the test with HCT-116 was > 100 µM (inactive) throughout. Further, the GI50 in the test with KM12, in the test with NCI-H522, in the test on SF-295, with SN12C, in the test on SNB-75 and in the test on SR was > 100 µM (inactive) in each case. Also, the GI50 with UACC-257 and in the test on UO-31 was > 100 µM (inactive) in each case.
On to `N#CNc1nc(N)c(-c2ccc(Cl)cc2)c(C(=O)Nc2nccs2)n1`, for which the GI50 in the test on 786-0, in the test with A498, in the test on CAKI-1, with EKVX, in the test on HCC 2998 and with HCT-116 was > 100 µM (inactive) each time. In addition, the GI50 with KM12, in the test with NCI-H522, with SF-295, in the test with SN12C, with SNB-75 and in the test with UACC-257 was > 100 µM (inactive) throughout. Besides, the GI50 in the test with UO-31 is > 100 µM (inactive).
On to `NS(=O)(=O)c1ccc(NC(=O)c2cccc3c(Nc4ccc(S(N)(=O)=O)cc4)c4ccccc4nc23)cc1`, for which the GI50 in the test on 786-0 was 25.3 µM (inactive); in the test with A498, > 100 µM (inactive); with CAKI-1, 38.2 µM (inactive); in the test on CCRF-CEM it was 6.18 µM (inactive); in the test on COLO 205, 54.5 µM (inactive); in the test with EKVX, > 100 µM (inactive). For the same compound, the GI50 in the test with HCT-116 was 46.8 µM (inactive); in the test on KM12 it was 4.47 µM (inactive); in the test on NCI-H522, 10.8 µM (inactive); in the test on SF-295 it was 31.6 µM (inactive); in the test with SN12C, 31.8 µM (inactive); in the test with SNB-75 it was 14.3 µM (inactive). Moreover, the GI50 in the test on UACC-257 was 32.9 µM (inactive); in the test with UO-31 it was 93.5 µM (inactive).
As for `Cc1nn(C(=O)CC(=O)Nc2ccc(Cl)cc2)c(C)c1/N=N/c1ccccc1C(=O)O`, the GI50 with 786-0, in the test on A498, in the test with CAKI-1, with CCRF-CEM, in the test on COLO 205 and in the test on EKVX was > 100 µM (inactive) in each case. Also, the GI50 with HCC 2998, with HCT-116, in the test on KM12, in the test on NCI-H522, with SF-295 and in the test on SN12C was > 100 µM (inactive) each time. Moreover, the figures for the GI50 with SNB-75, in the test on UACC-257 and in the test on UO-31 were 39.5 µM (inactive), > 100 µM (inactive) and > 100 µM (inactive), respectively.
On to `CCO/C([O-])=C(\C(=O)c1ccccc1)[n+]1c(C)n(C)c2ccccc21`, for which the GI50 with 786-0, with A498, in the test with CAKI-1, in the test on CCRF-CEM, in the test on COLO 205 and in the test with EKVX was > 100 µM (inactive) each time. The GI50 in the test with HCC 2998, in the test with HCT-116, in the test with KM12, in the test with NCI-H522, with SF-295 and in the test on SNB-75 was > 100 µM (inactive) each time. For the same compound, the GI50 in the test on UACC-257 and with UO-31 was > 100 µM (inactive) in each case.
With `CC(=O)n1c2ccccc2c2nc3nc(Oc4ccc(C)cc4)c4ccccc4c3cc21`, the GI50 in the test with 786-0 was 65.8 µM (inactive); in the test on CAKI-1, > 100 µM (inactive); in the test on CCRF-CEM, > 100 µM (inactive); in the test with COLO 205, > 100 µM (inactive); in the test on EKVX it was > 100 µM (inactive); in the test on HCC 2998, > 100 µM (inactive). Besides, the GI50 in the test with HCT-116 was > 100 µM (inactive); with KM12 it was > 100 µM (inactive); in the test with NCI-H522, > 100 µM (inactive); in the test with SF-295 it was 66.2 µM (inactive); in the test on SN12C, > 100 µM (inactive); with SNB-75, 44.2 µM (inactive). For the same compound, the GI50 in the test with SR, in the test on UACC-257 and in the test with UO-31 was > 100 µM (inactive) in each case.
With `C1C[N+]23CCC[N+]2(C1)CCC3` (centres undefined), the GI50 in the test on 786-0 was > 100 µM (inactive); in the test with A498, > 100 µM (inactive); in the test on CAKI-1, > 100 µM (inactive); in the test with CCRF-CEM, 31.6 µM (inactive); in the test on COLO 205, > 100 µM (inactive); in the test with EKVX, > 100 µM (inactive). In addition, the GI50 in the test on HCC 2998, in the test on HCT-116, in the test on KM12, in the test with NCI-H522, with SF-295 and in the test with SN12C was > 100 µM (inactive) throughout. Also, the GI50 in the test with SNB-75 was 97.5 µM (inactive); with UACC-257 it was > 100 µM (inactive); in the test on UO-31 it was 99.8 µM (inactive).
